Data reported in patent US11560400B2, “Salts of diphosphate phosphoramidate of nucleosides as anticancer compounds” (NuCana plc, priority 2017, dated 2023).
Structures can show the parent of a compound that is named as a salt. Where two headings read alike, the source gives them in different places.

How the values were obtained:
[1] = test system: HT29; experiment: CellTiterGlo cell viability assay, HT29; type: cell-based; details: Homo sapiens, HT-29, 72 h, HT29, 72 h; for EC50: read-out: Ab EC50; for inhibition at 198 µM: percentage inhibition at the highest concentration tested, read-out: Top Inhibit
Method: (§1) A subset of compounds of the invention were assayed for their cytotoxic activity in an array of different solid tumours and haematological malignancies using the following assay.
(§2) In vitro viability assay were performed to assess the effects of compounds on cell viability in selected cell lines over 72 h using the CellTiterGlo (CTG, Promega-G7573) assay. The tests were performed in duplicates with treatment of compounds at 9 points, 3.16 folds titration in 96 well plates over ˜72 h. The compound starting concentrations were 198 μM. Cell viability assay using CellTiterGlo in 96-well plate were performed. Compound treatment 72 h, standard growth conditions, duplicates. Compounds were dissolved to 40 mM with thawed […]. Compounds were serially diluted at 3.16 fold in thawed DMSO, and warmed to 37° C. before being dissolved in media (2 μL+200 μL). After compounds were dissolved in media, media containing compounds were warmed to 37° C. in incubator and then compounds in media were added to cell plates (50 μL+50 μL) in duplicates. The compounds' final concentrations were from 198 μM to 19.8 nM. All compound solubilities were checked and recorded again, then the plates were transferred to CO2 tissue culture incubator immediately and incubated for 3 days. DMSO final concentration is 0.5%. The parent nucleoside in each case was tested as a comparator, as was an exemplary ProTide. The drugs of the ProTide class that were tested were as follows:
(§3) The following cell lines were tested and are referred to in the Table 1 below:
(§4) In Tables 2, 3 and 4, ‘Ab EC50’ refers to the absolute EC50 and ‘Top inhibit’ refers to the percentage inhibition achieved at the highest concentration tested.

[2] = test system: HepG2; experiment: CellTiterGlo cell viability assay, HepG2; type: cell-based; details: Homo sapiens, HepG2, 72 h; for EC50: read-out: Ab EC50; for inhibition at 198 µM: percentage inhibition at the highest concentration tested, read-out: Top Inhibit
Method: as §1, §2, §3, §4

[3] = test system: OVCAR 3; experiment: CellTiterGlo cell viability assay, OVCAR 3; type: cell-based; details: Homo sapiens; for inhibition at 198 µM: OVCAR-3, 72 h, percentage inhibition at the highest concentration tested, read-out: Top Inhibit; for EC50: OVCAR 3, 72 h, read-out: Ab EC50
Method: as §1, §2, §3, §4

[4] = test system: MCF-7; experiment: CellTiterGlo cell viability assay, MCF-7; type: cell-based; details: Homo sapiens, MCF7, 72 h, MCF-7, 72 h, percentage inhibition at the highest concentration tested; read-out: Top Inhibit
Method: as §1, §2, §3, §4

[5] = test system: CCRF-CEM; experiment: CellTiterGlo cell viability assay, CCRF-CEM; type: cell-based; details: Homo sapiens, 72 h; for EC50: read-out: Ab EC50; for inhibition at 198 µM: percentage inhibition at the highest concentration tested, read-out: Top Inh
Method: as §1, §2, §3, §4

[6] = test system: MOLT-4; experiment: CellTiterGlo cell viability assay, MOLT-4; type: cell-based; details: Homo sapiens, MOLT-4, 72 h; for inhibition at 198 µM: percentage inhibition at the highest concentration tested, read-out: Top Inh; for EC50: read-out: Ab EC50
Method: as §1, §2, §3, §4

[7] = test system: K562; experiment: CellTiterGlo cell viability assay, K562; type: cell-based; details: Homo sapiens; for inhibition at 198 µM: percentage inhibition at the highest concentration tested, read-out: Top Inh; for EC50: read-out: Ab EC50
Method: as §1, §2, §3, §4

[8] = test system: HL-60; experiment: CellTiterGlo cell viability assay, HL-60; type: cell-based; details: Homo sapiens, HL-60, 72 h; for EC50: read-out: Ab EC50; for inhibition at 198 µM: percentage inhibition at the highest concentration tested, read-out: Top Inh
Method: as §1, §2, §3, §4

[9] = test system: RL; experiment: CellTiterGlo cell viability assay, RL; type: cell-based; details: Homo sapiens, 72 h; for inhibition at 198 µM: percentage inhibition at the highest concentration tested, read-out: Top Inh; for EC50: Table 4 classes, read-out: Ab EC50
Method: as §1, §2, §3, §4

[10] = test system: RPMI-8226; experiment: CellTiterGlo cell viability assay, RPMI-8226; type: cell-based, Human; details: Homo sapiens, RPMI-8226, 72 h; for EC50: read-out: Ab EC50; for inhibition at 198 µM: percentage inhibition at the highest concentration tested, read-out: Top Inh
Method: as §1, §2, §3, §4

[11] = test system: KG-1; experiment: CellTiterGlo cell viability assay, KG-1; type: cell-based; details: Homo sapiens, KG-1, 72 h; for EC50: read-out: Ab EC50; for inhibition at 198 µM: percentage inhibition at the highest concentration tested, read-out: Top Inhibit
Method: as §1, §2, §3, §4

[12] = K562, K 562, 72 h, Table 4 classes

| SMILES | inhibition at 198 µM [1] [%] | inhibition at 198 µM [2] [%] | inhibition at 198 µM [3] [%] | inhibition at 198 µM [4] [%] | inhibition at 198 µM [5] [%] | inhibition at 198 µM [6] [%] | inhibition at 198 µM ([7]; K562, 72 h) [%] | inhibition at 198 µM [8] [%] | inhibition at 198 µM [9] [%] | inhibition at 198 µM [10] [%] | inhibition at 198 µM [11] [%] | EC50 ([1]; Table 4 classes) [µM] | EC50 ([2]; Table 4 classes) [µM] | EC50 ([3]; Table 4 classes) [µM] | EC50 ([5]; Table 4 classes) [µM] | EC50 ([6]; Table 4 classes) [µM] | EC50 [7, 12] [µM] | EC50 ([8]; Table 4 classes) [µM] | EC50 ([10]; Table 4 classes) [µM] | EC50 ([11]; Table 4 classes) [µM] | also measured |
| --- | --- | --- | --- | --- | --- | --- | --- | --- | --- | --- | --- | --- | --- | --- | --- | --- | --- | --- | --- | --- | --- |
| CC(C)OC(=O)[C@H](C)NP(=O)(Oc1ccccc1)OP(=O)(O)OC[C@H]1O[C@@H](n2cnc3c(N)nc(Cl)nc32)[C@H](F)C1O (stereo partly drawn) [Example 15, 2-Chloro-9-(2′-Deoxy-2′-fluoro-β-D-arabinofuranosyl)adenine-5′-O-[1-phenyl(isopropoxy-L-alaninyl)] Diphosphate Triethylammonium Salt] | 69 | 51 | 41 | 47 | 99 | 90 | 36 | 96 | 49 | 80 | 92 | – | – | – | – | – | – | – | – | – | EC50 ([1]; absolute EC50, numeric values): 0.33 µM; EC50 ([2]; absolute EC50, numeric values): 0.37 µM; EC50 ([3]; absolute EC50, numeric values): > 198 µM; EC50 ([5]; absolute EC50, numeric values): < 0.02 µM; EC50 ([6]; absolute EC50, numeric values): 0.03 µM; EC50 ([7]; K562, 72 h, absolute EC50, numeric values): > 198 µM; EC50 ([8]; absolute EC50, numeric values): 0.06 µM; EC50 ([10]; absolute EC50, numeric values): 30.3 µM; EC50 ([11]; absolute EC50, numeric values): 0.09 µM |
| COC(=O)[C@H](C)NP(=O)(Oc1ccccc1)OP(=O)(O)OC[C@H]1O[C@@H](n2cnc3c(N)nc(Cl)nc32)[C@H](F)C1O (stereo partly drawn) [Example 16, 2-Chloro-9-(2′-Deoxy-2′-fluoro-β-D-arabinofuranosyl)adenine-5′-O-[1-phenyl(methoxy-L-alaninyl)] Diphosphate Triethylammonium Salt] | 71 | 53 | 44 | 47 | 99 | 97 | 33 | 96 | 49 | 84 | 93 | 0.2 to 1 | 0.2 to 1 | > 10 | < 0.2 | < 0.2 | > 10 | < 0.2 | > 10 | < 0.2 | – |
| C[C@H](NP(=O)(Oc1cccc2ccccc12)OP(=O)(O)OC[C@H]1O[C@@H](n2cnc3c(N)nc(Cl)nc32)[C@H](F)C1O)C(=O)OCc1ccccc1 (stereo partly drawn) [Example 17, 2-Chloro-9-(2′-Deoxy-2′-fluoro-β-D-arabinofuranosyl)adenine-5′-O-[1-1-naphthyl(benzoxy-L-alaninyl)] Diphosphate Triethylammonium Salt] | 69 | 52 | 47 | 46 | 99 | 88 | 37 | 96 | 48 | 82 | 92 | 0.2 to 1 | 0.2 to 1 | > 10 | < 0.2 | < 0.2 | > 10 | < 0.2 | > 10 | < 0.2 | – |
| CCCCCCOC(=O)[C@H](C)NP(=O)(Oc1ccccc1)OP(=O)(O)OC[C@H]1O[C@@H](n2cnc3c(N)nc(Cl)nc32)[C@H](F)C1O (stereo partly drawn) [Example 18, 2-Chloro-9-(2′-Deoxy-2′-fluoro-β-D-arabinofuranosyl)adenine-5′-O-[1-phenyl(hexoxy-L-alaninyl)] Diphosphate Triethylammonium Salt] | 66 | 53 | 47 | 44 | 99 | 88 | 40 | 96 | 48 | 84 | 91 | 0.2 to 1 | 0.2 to 1 | > 10 | < 0.2 | < 0.2 | > 10 | < 0.2 | > 10 | < 0.2 | – |
| C[C@H](NP(=O)(Oc1cccc2c1CCCC2)OP(=O)(O)OC[C@H]1O[C@@H](n2cnc3c(N)nc(Cl)nc32)[C@H](F)C1O)C(=O)OCc1ccccc1 (stereo partly drawn) [Example 19, 2-Chloro-9-(2′-Deoxy-2′-fluoro-β-D-arabinofuranosyl)adenine-5′-O-[1-5,6,7,8-tetrahydro-1-naphthyl(benzoxy-L-alaninyl)] Diphosphate Triethylammonium Salt] | 68 | 51 | 51 | 47 | 99 | 90 | 37 | 95 | 57 | 79 | 92 | 0.2 to 1 | 0.2 to 1 | > 10 | < 0.2 | < 0.2 | > 10 | < 0.2 | > 10 | < 0.2 | EC50 [9]: 0.2 to 1 µM |
| CCOP(=O)(N[C@@H](C)C(=O)OCc1ccccc1)OP(=O)(O)OC[C@H]1O[C@@H](n2cnc3c(N)nc(Cl)nc32)[C@H](F)C1O (stereo partly drawn) [Example 20, 2-Chloro-9-(2′-Deoxy-2′-fluoro-β-D-arabinofuranosyl)adenine-5′-O-[1-ethyl(benzoxy-L-alaninyl)] Diphosphate Triethylammonium Salt] | 69 | 54 | 49 | 48 | 99 | 89 | 35 | 96 | 69 | 80 | 92 | 0.2 to 1 | 0.2 to 1 | > 10 | < 0.2 | < 0.2 | > 10 | < 0.2 | > 10 | < 0.2 | EC50 [9]: 0.2 to 1 µM |
| CC(C)C[C@H](NP(=O)(Oc1ccccc1)OP(=O)(O)OC[C@H]1O[C@@H](n2cnc3c(N)nc(Cl)nc32)[C@H](F)C1O)C(=O)OCc1ccccc1 (stereo partly drawn) [Example 21, 2-Chloro-9-(2′-Deoxy-2′-fluoro-β-D-arabinofuranosyl)adenine-5′-O-[1-phenyl(benzoxy-L-leucinyl)] Diphosphate Triethylammonium Salt] | 69 | 53 | 47 | 49 | 99 | 90 | 32 | 96 | 70 | 81 | 92 | 0.2 to 1 | 0.2 to 1 | > 10 | < 0.2 | < 0.2 | > 10 | < 0.2 | > 10 | < 0.2 | EC50 [9]: 1 to 5 µM |
